Data from patent US10517889B2, “Modulators of SMAD7 expression” (Ionis Pharmaceuticals, Inc., priority 2017, dated 2019).
Several values for one entry are separate records, joined by “and”; a condition that tells them apart may be missing. Equal values may be shown once. Strand notation (5' to 3'): a small letter for the sugar, then the base; units joined by * are phosphorothioate-linked, units joined directly phosphodiester-linked; [ ] holds rarer units or linkages, { } end groups; capitals alone tell only the bases. k = constrained ethyl (cEt); [5mC] = 5-methylcytosine; d = 2'-deoxy (DNA)

Tests used:
[1] = Tissue and organ histopathology after oral gavage in CD-1 mice (Example 7); assay type: in vivo; details: daily oral gavage 500 mg/kg for one month, in words
Procedure: Groups of 7-8 week old male CD-1 mice were given an oral gavage dose once daily for 4 weeks of 500 mg/kg of Ionis SMAD7 oligonucleotides. Each group contained 8 mice. One group of male CD-1 mice was administered saline by oral gavage daily.
Histopathology evaluations were performed on the mice treated with Ionis oligonucleotides to evaluate any tissue damage in the liver (with gallbladder), kidneys, heart, spleen, thymus, mesenteric lymph nodes, and different parts of the GI tract, including duodenum, ileum, and colon (proximal and distal). Tissues were collected and fixed in 10% neutral-buffered formalin, embedded in paraffin, sectioned, and stained with hematoxylin and eosin. All the tissues were histologically unremarkable in all mice.

mouse Smad7 mRNA [2] = assay: Murine Smad7 mRNA expression after subcutaneous administration in BALB/c mice (Example 10); assay type: in vivo; details: 50 mg/kg subcutaneous once a week for 4 weeks, 24 hours after last dose
Procedure: The objective of this study was to evaluate the efficacy of Ionis SMAD7 antisense oligonucleotides compared to ION 736697/Mongersen in BALB/c mice following 4 weeks of treatment. Both ION 830025 and ION 798781 are cross-reactive with mouse Smad7 mRNA.
Groups of BALB/c mice were subcutaneously administered 50 mg/kg of Ionis SMAD7 oligonucleotides once a week for 4 weeks. Each group contained 4 mice. One group of mice was administered PBS once a week for 4 weeks. […]

human SMAD7 mRNA [3] = assay: Antisense inhibition of human SMAD7 mRNA expression in Hep3B cells by 3-10-3 cEt gapmers, 10,000 nM, electroporation (Example 2); assay type: cell-based; details: approximately 24 hours, primer probe set RTS5062, relative to untreated control cells
How it was run: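 Hep3B cells (20,000 per well) were electroporated with 10,000 nM 16-mer 3-10-3 cEt gapmer (phosphorothioate, 5-methylcytosine). After about 24 h, SMAD7 mRNA was quantified by qRT-PCR with primer probe set RTS5062, normalised to RIBOGREEN total RNA, and expressed as percent inhibition versus untreated cells.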

human SMAD7 mRNA [4] = assay: Dose-dependent inhibition of human SMAD7 mRNA expression in Hep3B cells (Example 3, Study 1 and 2); assay type: cell-based; details: electroporation; for % inhibition of SMAD7 mRNA expression: approximately 16 hours
How it was run: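 Hep3B cells, 20,000 per well, electroporated with antisense oligonucleotide at 0.31, 1.25, 5.00 or 20.00 μM (first series) or 0.74, 2.22, 6.67 or 20.00 μM (second series). After ~16 h, SMAD7 mRNA measured by RT-qPCR (RTS5062), normalised to RIBOGREEN total RNA. Percent inhibition vs untreated cells; IC50 derived.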

[5] = Plasma chemistry markers after subcutaneous administration in CD-1 mice (Example 6); assay type: in vivo; details: CD-1 mice plasma at day 46; 50 mg/kg subcutaneously twice a week for 7 weeks
Procedure: CD-1® mice (Charles River, Mass.) are a multipurpose mice model, frequently utilized for safety and efficacy testing. The mice were treated with Ionis human SMAD7 antisense oligonucleotides selected from studies described above and evaluated.
Groups of 8-9 week old male CD-1 mice were injected subcutaneously twice a week for 7 weeks with 50 mg/kg of Ionis oligonucleotides (100 mg/kg/week dose). Each group contained 4 mice. One group of male CD-1 mice was injected subcutaneously twice a week for 7 weeks with PBS. […]

[6] = Hematology assays after subcutaneous administration in CD-1 mice (Example 6); assay type: in vivo; set-up: RBC / Eosinophils / Monocytes: unit not given here; details: 50 mg/kg subcutaneous twice weekly for 7 weeks
Procedure: (§1) Groups of 8-9 week old male CD-1 mice were injected subcutaneously twice a week for 7 weeks with 50 mg/kg of Ionis oligonucleotides (100 mg/kg/week dose). Each group contained 4 mice. One group of male CD-1 mice was injected subcutaneously twice a week for 7 weeks with PBS. Plasma was collected for analysis on day 28.
Blood obtained from all mouse groups was measured by an ADVIA2120i hematology analyzer (Siemens, USA) for measurements of the various blood cells, as well as other hematology markers.

[7] = Organ weights after subcutaneous administration in CD-1 mice (Example 6); assay type: in vivo; details: end of study, 50 mg/kg subcutaneously twice a week for 7 weeks
Procedure: as §1
Ionis SMAD7 oligonucleotides that caused any changes in organ weights outside the expected range for antisense oligonucleotides were excluded from further studies.

mouse Smad7 mRNA [8] = assay: Pharmacology: mouse Smad7 mRNA expression in liver, kidney, duodenum, ileum and colon after subcutaneous administration in CD-1 mice (Example 6); assay type: in vivo; details: 50 mg/kg subcutaneous twice weekly for 7 weeks, normalized to GAPDH
Procedure: as §1
The pharmacological activity of the Ionis oligonucleotides in mice was assessed by measuring mouse Smad7 mRNA expression in liver, kidney, duodenum, ileum, and colon at necropsy.
Tissue samples from all mice were analyzed for Smad7 mRNA expression using the primer probe set HTS7555 (forward sequence […], designated SEQ ID NO: 2737; reverse sequence […], designated SEQ ID NO: 2738; probe sequence […], designated SEQ ID NO: 2739), which was normalized to mRNA levels of the housekeeping gene, GAPDH. One-way ANOVA with Dunnet's comparison test was used for statistical analysis.

[9] = Plasma chemistry markers after oral gavage in beagle dogs (Example 12); details: 200 mg by oral gavage for 4 weeks, day 30, in words
Procedure: The study was conducted to evaluate the tolerability and pharmacodynamics of select human SMAD7 antisense oligonucleotides in beagle dogs following 4 weeks of treatment. The dogs were administered oligonucleotides by oral gavage.
(§2) Groups of 24-25 week old male beagle dogs were administered 200 mg Ionis human SMAD7 oligonucleotide by oral gavage once a week for 4 weeks. There were 4 animals per group. A control group of dogs received oral administration of distilled water. Dogs were sacrificed on day 30 approximately 48 hours after the final dose and organs and plasma were harvested for further analysis.
To evaluate the effect of Ionis SMAD7 oligonucleotides on liver and kidney function, approximately 1.5 mL of blood samples were collected and put into tubes without anticoagulant for serum separation. The tubes were kept at room temperature for a minimum of 90 min and then centrifuged (approximately 3,000 rpm for 10 min) to obtain serum. Plasma levels of transaminases, albumin, bilirubin, and BUN were measured using an automated clinical chemistry analyzer (Toshiba 200FR Neo chemistry analyzer, Toshiba Co., Japan).

human SMAD7 mRNA [10] = assay: Dose-dependent inhibition of human SMAD7 mRNA expression in A431 cells, oligonucleotide added without transfection (Example 5, Study 1); assay type: cell-based; details: SMAD7 mRNA, in words
Procedure: The newly designed compounds disclosed herein are cEt-modified antisense oligonucleotides. […] The studies described below show a comparison of select cEt-modified gapmers and ION0736697/Mongersen.
A431 cells were plated in collagen I-coated 96-well plates in DMEM with […]. Immediately after plating, 0.08 μM, 0.25 μM, 0.74 μM, 2.22 μM, 6.67 μM, or 20.00 μM concentrations of antisense oligonucleotide were added. The plates were shaken briefly before incubating at 37° C. and 10% CO2. After a treatment period of approximately 48 hours, the cells were washed and lyzed and RNA on 384-well Pall plates with DNase I treatment. SMAD7 mRNA levels were measured by quantitative real-time PCR. Primer probe set RTS5062 was used to measure human SMAD7 mRNA levels. SMAD7 mRNA levels were adjusted according to total RNA content, as measured by RIBOGREEN®. Results are presented as percent inhibition of SMAD7 mRNA expression, relative to untreated control cells.
All Ionis oligonucleotides had greater potency than ION 736697/Mongersen.

[11] = Organ weights after oral gavage in beagle dogs (Example 12); details: 200 mg by oral gavage for 4 weeks, day 30, in words
Procedure: as §2

[12] = Plasma chemistry markers after subcutaneous administration in beagle dogs (Example 8); details: 30 mg/kg subcutaneously, day 31, in words
Procedure: Groups of 24-25 week old male beagle dogs were injected subcutaneously with 30 mg/kg ION Ionis oligonucleotide. There were 4 animals per group. Dogs were injected every two days for the first week (day 1, 3, and 5) and once weekly thereafter (days 8, 15, 22, and 29). A control group of dogs received subcutaneous injections of PBS. Dogs were sacrificed on day 31 approximately 48 hours after the final dose and organs and plasma were harvested for further analysis.
To evaluate the effect of Ionis SMAD7 oligonucleotides on liver and kidney function, plasma levels of transaminases, albumin, creatine and BUN were measured using an automated clinical chemistry analyzer (Toshiba 200FR Neo chemistry analyzer, Toshiba Co., Japan).

[13] = Pharmacokinetics: oligonucleotide concentration in tissues after oral gavage in beagle dogs (Example 12); assay type: in vivo
Procedure: There were 4 animals per group.
Canine tissue exposure following oral administration of the Ionis SMAD7 oligonucleotides was measured in various organs and intestinal tissues.
Plasma concentrations of Ionis oligonucleotides were also measured on Day 28 at various time points.

murine Smad7 mRNA = assay: Dose-dependent inhibition of murine Smad7 mRNA in bEND cells, electroporation (Example 5, Study 2); assay type: cell-based, mouse; details: in words
Procedure: Many of the Ionis designed oligonucleotides as well as ION 736697/Mongersen are complementary to mouse Smad7 mRNA. […] After a treatment period of approximately 16 hours, the cells were washed and lyzed and RNA on 384-well Pall plates with DNase I treatment. Smad7 mRNA levels were measured by quantitative real-time PCR. Primer probe set RTS1114 (forward sequence […], designated herein as SEQ ID NO: 8; reverse sequence […], designated herein as SEQ ID NO: 9; probe sequence […], designated herein as SEQ ID NO: 10) was used to measure murine Smad7 mRNA levels. Smad7 mRNA levels were adjusted according to total RNA content, as measured by RIBOGREEN®. Results are presented as percent inhibition of Smad7 mRNA expression, relative to untreated control cells.
Many of the Ionis oligonucleotides had greater potency than ION 736697/Mongersen.

## ION 790615: 3-10-3 (S)-cEt gapmer targeting human SMAD7; top lead compound (k[5mC]*k[5mC]*kA*dA*dT*dG*dA*dG*dA*dA*dT*dG*d[5mC]*kT*kT*k[5mC])
[1]
  Histopathology: oligonucleotide-related tissue alterations: not associated with any antisense oligonucleotide-related tissue alterations
Mouse Smad7 mRNA [2]
  Mouse Smad7 mRNA expression (% inhibition), Colon: 71 % inhibition
  Mouse Smad7 mRNA expression (% inhibition), Duodenum: 39 % inhibition
  Mouse Smad7 mRNA expression (% inhibition), Ileum: 41 % inhibition
  Mouse Smad7 mRNA expression (% inhibition), Kidney: 28 % inhibition
  Mouse Smad7 mRNA expression (% inhibition), Liver: 47 % inhibition

## 799144 (antisense kT*kT*kG*dG*dG*dT*dT*dA*dT*dG*dA*d[5mC]*dG*kG*kA*k[5mC]) [compound 799144]
Human SMAD7 mRNA [3]; Hep3B cells, electroporation with 10,000 nM antisense oligonucleotide
  % inhibition of SMAD7 mRNA expression: 72%
Human SMAD7 mRNA [3]; SMAD7 mRNA, Hep3B cells, 10,000 nM antisense oligonucleotide, electroporation
  % Inhibition: 72%
Human SMAD7 mRNA [4]; 740 nM, Study 2, relative to untreated control cells
  % inhibition of SMAD7 mRNA expression: 32% and 40%
Human SMAD7 mRNA [4]; 2220 nM, Study 2
  % inhibition of SMAD7 mRNA expression: 50% and 57%
Human SMAD7 mRNA [4]; 6670.0 nM, Study 2
  % inhibition of SMAD7 mRNA expression: 67% and 60%
Human SMAD7 mRNA [4]; 20000.0 nM, Study 2
  % inhibition of SMAD7 mRNA expression: 83% and 87%
Human SMAD7 mRNA [4]; Study 2 (740-20000 nM)
  IC50: 2000 nM and 1000 nM
[5]
  ALT: 253 IU/L
  AST: 170 IU/L
  Albumin: 2.7 g/dL
  BUN: 21 mg/dL
[6]
  Eosinophils: 2.9
  Hematocrit: 43.1%
  Hemoglobin: 14.3 g/dL
  Lymphocytes: 80.7%
  MCH: 15.2 pg
  MCHC: 33.2 g/dL
  MCV: 45.8 fL
  Monocytes: 4.9
  Neutrophils: 11.4%
  RBC: 9.5
  Reticulocytes: 3.3%
  WBC: 6.2 10^3/μL
  platelets: 614.0 10^3/μL
[6]; n.d. = below detection levels
  Basophils: 0.1 10^3/μL
[7]
  Organ weights, Kidneys: 0.6 g
  Organ weights, Liver: 2.3 g
  Organ weights, Spleen: 0.1 g
Mouse Smad7 mRNA [8]; kidney
  % inhibition of Smad7 mRNA expression (compared to control), Kidney: 3%
Mouse Smad7 mRNA [8]; liver
  % inhibition of Smad7 mRNA expression (compared to control), Liver: 0%

## ION 798781 (CGTAAGATTCACAGCA; 3-10-3 cEt gapmer, further chemistry not given here)
[1]
  Histopathology: oligonucleotide-related tissue alterations: not associated with any antisense oligonucleotide-related tissue alterations
Mouse Smad7 mRNA [2]
  Mouse Smad7 mRNA expression (% inhibition), Colon: 41 % inhibition
  Mouse Smad7 mRNA expression (% inhibition), Duodenum: 27 % inhibition
  Mouse Smad7 mRNA expression (% inhibition), Ileum: 22 % inhibition
  Mouse Smad7 mRNA expression (% inhibition), Kidney: 11 % inhibition
  Mouse Smad7 mRNA expression (% inhibition), Liver: 36 % inhibition
[9]
  Tolerability (plasma chemistry markers): very well tolerated
Human SMAD7 mRNA [10]
  Potency/efficacy compared with ION 736697/Mongersen: more efficacious than ION 736697/Mongersen
[11]
  Tolerability (organ weights): very well tolerated
[12]
  Tolerability (plasma chemistry markers): well tolerated
[13]; 200 mg by oral gavage for 4 weeks, in words
  Tissue accumulation of oligonucleotide: higher accumulation in the liver and kidneys
[13]; 200 mg oral gavage for 4 weeks, duodenum
  Oligonucleotide concentration in tissues, Duodenum: 0.6 µg/g
[13]; 200 mg oral gavage for 4 weeks, ileum
  Oligonucleotide concentration in tissues, Ileum: 0.5 µg/g
[13]; 200 mg oral gavage for 4 weeks, kidney
  Oligonucleotide concentration in tissues, Kidney: 108.1 µg/g
[13]; 200 mg oral gavage for 4 weeks, liver
  Oligonucleotide concentration in tissues, Liver: 12.9 µg/g
[13]; 200 mg oral gavage for 4 weeks, proximal colon
  Oligonucleotide concentration in tissues, Proximal colon: 0.1 µg/g
Murine Smad7 mRNA
  Potency compared with ION 736697/Mongersen: more potent than ION 736697/Mongersen
